Test results as given in ChEMBL document CHEMBL1142603, “Manzamine B and E and ircinal A related alkaloids from an Indonesian Acanthostrongylophora sponge and their activity against infectious, tropical parasitic, and Alzheimer's diseases” (J Nat Prod, 2006).
In brackets after ≈: the same amount, converted by molar mass. Activity calls are given as the source filed them. The calls are words filed in the database; no cut-off is given here.

Tests used:
Plasmodium falciparum [1] = test: Antimalarial activity after 72 hrs against chloroquine-sensitive Plasmodium falciparum D6 in erythrocytes at […] by LDH reporter assay; type: functional, organism-based
Plasmodium falciparum [2] = test: Antimalarial activity after 72 hrs against chloroquine-resistant Plasmodium falciparum W2 in erythrocytes at […] by LDH reporter assay; type: functional, organism-based
Leishmania donovani [3] = test: Antileishmanial activity against Leishmania donovani at 40 ug/mL after 72 hrs by alamar blue assay; type: functional, organism-based
Vero [4] = test: Cytotoxicity against african green monkey Vero cells at 4.76 ug/mL by neutral red assay; type: cell-based; conditions: chlorocebus sabaeus
Staphylococcus aureus [5] = test: Antibacterial activity against Staphylococcus aureus; type: functional, organism-based
Staphylococcus aureus [6] = test: Antibacterial activity against methicillin-resistant Staphylococcus aureus; type: functional, organism-based
Cryptococcus neoformans = test: Antifungal activity against Cryptococcus neoformans; type: functional, organism-based
[7] = system: Mycobacterium intracellulare; test: Antibacterial activity against Mycobacterium intracellular by alamar blue assay; type: functional, organism-based
[8] = molecular target: T1, Acetylcholinesterase (Bos taurus) (UniProt P23795); test: Inhibition of bovine AChE
T1 sequence (whole entry): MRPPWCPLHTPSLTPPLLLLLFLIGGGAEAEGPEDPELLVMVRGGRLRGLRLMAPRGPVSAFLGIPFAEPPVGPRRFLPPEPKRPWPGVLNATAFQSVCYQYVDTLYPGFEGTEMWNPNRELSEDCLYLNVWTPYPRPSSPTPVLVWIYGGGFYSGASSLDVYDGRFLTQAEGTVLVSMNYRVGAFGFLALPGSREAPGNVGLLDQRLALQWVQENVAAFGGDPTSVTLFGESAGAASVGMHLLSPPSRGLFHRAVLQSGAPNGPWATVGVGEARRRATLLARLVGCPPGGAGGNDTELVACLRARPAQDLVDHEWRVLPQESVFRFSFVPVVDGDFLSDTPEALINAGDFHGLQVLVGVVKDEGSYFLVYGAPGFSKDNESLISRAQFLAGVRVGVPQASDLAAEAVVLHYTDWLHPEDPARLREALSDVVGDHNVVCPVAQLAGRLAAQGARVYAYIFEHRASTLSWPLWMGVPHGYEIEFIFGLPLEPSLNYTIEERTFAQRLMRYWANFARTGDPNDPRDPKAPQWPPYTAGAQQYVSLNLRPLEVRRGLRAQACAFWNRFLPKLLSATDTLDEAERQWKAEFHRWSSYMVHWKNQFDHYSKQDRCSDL

[9] = molecular target: Beta-secretase 1 (Homo sapiens) (UniProt P56817); test: Inhibition of human recombinant BACE1 by FRET-based assay
[10] = molecular target: Glycogen synthase kinase-3 beta (Homo sapiens) (UniProt P49841); test: Inhibition of human recombinant GSK3-beta assessed as incorporation of [33P]gammaATP into G2S peptide at 25 uM
[11] = system: Human immunodeficiency virus 1; test: Antiviral activity against HIV1 3B assessed as reverse transcriptase activity by enzyme immunoassay; type: functional, organism-based; conditions: Human immunodeficiency virus 1, 3B
[12] = system: Mycobacterium tuberculosis; test: Antituberculosis activity against Mycobacterium tuberculosis H37Rv after 24 hrs by alamar blue assay; type: functional
Plasmodium falciparum [13] = test: Antimalarial activity after 72 hrs against chloroquine-sensitive Plasmodium falciparum D6 in erythrocytes by LDH reporter assay; type: functional, organism-based; conditions: D6, 72 h
Plasmodium falciparum [14] = test: Antimalarial activity after 72 hrs against chloroquine-resistant Plasmodium falciparum W2 in erythrocytes by LDH reporter assay; type: functional, organism-based; conditions: W2, 72 h
Leishmania donovani [15] = test: Antileishmanial activity against Leishmania donovani after 72 hrs by alamar blue assay; type: functional, organism-based
Vero [16] = test: Cytotoxicity against african green monkey Vero cells by neutral red assay; type: cell-based; conditions: chlorocebus sabaeus

Chain of Beta-secretase 1 (Homo sapiens) (P56817 whole entry): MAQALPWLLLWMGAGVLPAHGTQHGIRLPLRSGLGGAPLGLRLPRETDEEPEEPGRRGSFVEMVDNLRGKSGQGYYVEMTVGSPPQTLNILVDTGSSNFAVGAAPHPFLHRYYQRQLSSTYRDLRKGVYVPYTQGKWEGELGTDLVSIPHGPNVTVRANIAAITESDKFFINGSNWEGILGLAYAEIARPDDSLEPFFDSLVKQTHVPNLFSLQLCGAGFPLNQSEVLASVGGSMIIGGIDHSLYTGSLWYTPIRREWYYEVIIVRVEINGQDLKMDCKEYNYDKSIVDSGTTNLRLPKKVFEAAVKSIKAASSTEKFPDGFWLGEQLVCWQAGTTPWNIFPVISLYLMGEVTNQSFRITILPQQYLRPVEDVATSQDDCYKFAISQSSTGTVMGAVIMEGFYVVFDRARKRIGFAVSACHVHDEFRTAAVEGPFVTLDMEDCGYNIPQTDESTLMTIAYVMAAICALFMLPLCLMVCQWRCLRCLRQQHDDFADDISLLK
Chain of Glycogen synthase kinase-3 beta (Homo sapiens) (P49841 whole entry, looked up): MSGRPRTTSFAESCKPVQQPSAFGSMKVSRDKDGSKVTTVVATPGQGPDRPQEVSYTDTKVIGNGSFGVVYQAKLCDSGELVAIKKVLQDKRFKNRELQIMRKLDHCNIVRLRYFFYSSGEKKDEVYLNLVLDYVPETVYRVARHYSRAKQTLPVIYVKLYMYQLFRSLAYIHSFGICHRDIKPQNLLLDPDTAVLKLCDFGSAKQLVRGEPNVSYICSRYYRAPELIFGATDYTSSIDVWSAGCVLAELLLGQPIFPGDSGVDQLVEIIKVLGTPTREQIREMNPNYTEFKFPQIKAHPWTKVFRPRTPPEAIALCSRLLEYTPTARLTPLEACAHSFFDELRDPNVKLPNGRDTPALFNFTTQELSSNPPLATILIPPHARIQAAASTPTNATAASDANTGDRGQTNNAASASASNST

Row | SMILES | Activity (Plasmodium falciparum [1]) | Activity (Plasmodium falciparum [2]) | Activity (Vero [4]) | Activity (Staphylococcus aureus [5]) | Activity (Staphylococcus aureus [6]) | Activity (Cryptococcus neoformans) | Activity [7] | Activity [8] | Activity [9] | other results
1 | O=C1CCCN2[C@@H]3[C@@]45CN6CCCC/C=C\CC[C@@]3(C=C(c3nccc7c3[nH]c3ccc(O)cc37)[C@@H]4CC6)O[C@]2(CC1)C5 | inactive | inactive | Non-toxic | inactive | inactive | inactive | inactive | inactive | inactive | Activity (Leishmania donovani [3]): inactive
2 | O=CC1=C[C@@]2(O)CC/C=C\CCCCN3CC[C@@H]1[C@]1(C[C@@H]4/C=C\CCCCN4[C@H]12)C3 | – | – | – | – | – | – | – | – | – | inhibition [10]: 0%
3 | Oc1cccc2c1[nH]c1c([C@H]3[C@@H]4CCN5CCCC/C=C\CC[C@@]6(O[C@@H]36)[C@@H]3NCCCC/C=C\CC[C@@]34C5)nccc12 | – | – | – | – | – | – | – | inactive | inactive | –
4 | O=C(O)c1cn(C2CC2)c2cc(N3CCNCC3)c(F)cc2c1=O [CIPROFLOXACIN] | – | – | – | – | – | – | – | – | – | IC50 [7]: 0.25 µg/mL (≈ 0.754 µM)
5 | Oc1cccc2c3cc[nH]c(C4=C[C@]56CC/C=C\CCCCN7CC[C@@H]4[C@]4(C[C@@H]8/C=C\CCC[C@@H](O5)N8[C@H]46)C7)c-3nc12 [12,28-OXA-8-HYDROXY-MANZAMINE A] | inactive | inactive | Non-toxic | inactive | inactive | inactive | inactive | inactive | inactive | –
6 | O=C1CCCN2[C@@H]3[C@@]45CN6CCCC/C=C\CC[C@@]3(C=C(c3nccc7c3[nH]c3ccccc37)[C@@H]4CC6)O[C@]2(CC1)C5 | inactive | inactive | Non-toxic | inactive | inactive | inactive | inactive | inactive | inactive | Activity (Leishmania donovani [3]): inactive; IC50 [11]: 17.5 µg/mL (≈ 31.1 µM)
7 | O=C1CCCN2[C@@H](CC1)C[C@]13CN4CCCC/C=C\CC[C@](O)(C=C(c5nccc6c5[nH]c5ccccc56)C1CC4)[C@H]23 (stereo partly drawn) [MANZAMINE E] | – | – | Non-toxic | inactive | inactive | inactive | – | inactive | inactive | inhibition [10]: 53.6%; MIC [12]: 3.8 µg/mL (≈ 6.73 µM); IC50 (Plasmodium falciparum [13]): 3.4 µg/mL (≈ 6.02 µM); IC50 (Plasmodium falciparum [14]): 4.76 µg/mL (≈ 8.43 µM); IC50 (Leishmania donovani [15]): 3.8 µg/mL (≈ 6.73 µM); IC90 (Leishmania donovani [15]): 6.8 µg/mL (≈ 12 µM); IC50 [7]: 12.5 µg/mL (≈ 22.1 µM); IC50 [11]: 13.1 µg/mL (≈ 23.2 µM)
8 | CO[C@H]1/C=C/O[C@@]2(C)Oc3c(C)c(O)c4c(O)c(c(/C=N/N5CCN(C)CC5)c(O)c4c3C2=O)NC(=O)/C(C)=C\C=C\[C@H](C)[C@H](O)[C@@H](C)[C@@H](O)[C@@H](C)[C@H](OC(C)=O)[C@@H]1C [RIFAMPIN] | – | – | – | – | – | – | – | – | – | MIC [12]: 0.5 µg/mL (≈ 0.608 µM)
9 | O=CC1=C[C@]23CC/C=C\CCCCN4CC[C@@H]1[C@]1(C[C@@H]5/C=C\CCC[C@@H](O2)N5[C@H]13)C4 | – | – | – | – | – | – | – | inactive | inactive | –
10 | O=C1CC[C@H]2C[C@]34CN5CCCC/C=C\CC[C@@]6(C=C(c7nccc8c7[nH]c7ccccc78)[C@@H]3CC5)O[C@H](CC1)N2[C@H]46 | inactive | inactive | Non-toxic | inactive | inactive | inactive | inactive | inactive | inactive | IC50 (Leishmania donovani [15]): 18 µg/mL (≈ 32 µM); IC90 (Leishmania donovani [15]): 40 µg/mL (≈ 71.1 µM)
11 | O=C1CCCN2[C@@H](CC1)C[C@]13CN4CCCC/C=C\CC[C@](O)(C=C(c5nccc6c5[nH]c5ccc(O)cc56)[C@@H]1CC4)[C@H]23 | – | – | Non-toxic | – | – | – | – | inactive | inactive | MIC [12]: 0.4 µg/mL (≈ 0.689 µM); IC50 (Plasmodium falciparum [13]): 0.78 µg/mL (≈ 1.34 µM); IC50 (Plasmodium falciparum [14]): 0.87 µg/mL (≈ 1.5 µM); IC50 (Leishmania donovani [15]): 2.5 µg/mL (≈ 4.3 µM); IC90 (Leishmania donovani [15]): 4.3 µg/mL (≈ 7.4 µM); IC50 (Vero [16]): 4.3 µg/mL (≈ 7.4 µM); IC50 (Cryptococcus neoformans): 5.5 µg/mL (≈ 9.47 µM); IC50 [7]: 3.5 µg/mL (≈ 6.03 µM)
